Data published in ChEMBL document CHEMBL1201862, “PubChem BioAssay data set” (2004).
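Following 48 hours of exposure in 96-well plates, responses at five concentrations were used to interpolate endpoints linearly. At the GI50, growth is halved.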 The source made the active and inactive calls. Cut-off read from the data, not from the text of the source: active = GI50 up to about 1.1 µM and inactive = higher.

How the values were obtained:
Assay in all cases: NCI tumour cell line growth inhibition, 48 h
M14 = tested on: M14
CAKI-1 = tested on: CAKI-1
SF-539 = tested on: SF-539
DLD-1 = tested on: DLD-1
NCI-H460 = tested on: NCI-H460
NCI-H522 = tested on: NCI-H522
HT-29 = tested on: HT-29
HOP-62 = tested on: HOP-62
MOLT-4 = tested on: MOLT-4
SNB-75 = tested on: SNB-75
SW-620 = tested on: SW-620
NCI-H226 = tested on: NCI-H226
EKVX = tested on: EKVX
SK-MEL-2 = tested on: SK-MEL-2
ACHN = tested on: ACHN
MDA-MB-435 = tested on: MDA-MB-435
T47D = tested on: T47D
MDA-N = tested on: MDA-N
MCF7 = tested on: MCF7
Hs-578T = tested on: Hs-578T

SMILES	GI50 (M14)	GI50 (CAKI-1)	GI50 (SF-539)	GI50 (DLD-1)	GI50 (NCI-H460)	GI50 (NCI-H522)	GI50 (HT-29)	GI50 (HOP-62)	GI50 (MOLT-4)	GI50 (SNB-75)	GI50 (SW-620)	GI50 (NCI-H226)	GI50 (EKVX)	GI50 (SK-MEL-2)	GI50 (ACHN)	GI50 (MDA-MB-435)	GI50 (T47D)	GI50 (MDA-N)	GI50 (MCF7)	GI50 (Hs-578T)
N#C[C-](C#N)[n+]1ccc(Cl)cc1	17 µM (inactive)	3.53 µM (inactive)	20.4 µM (inactive)	11.5 µM (inactive)	22.5 µM (inactive)	3.19 µM (inactive)	18 µM (inactive)	29.2 µM (inactive)	12.7 µM (inactive)	17.5 µM (inactive)	10.9 µM (inactive)	25.3 µM (inactive)	19 µM (inactive)	–	–	–	–	–	–	–
S=c1nc(N2CCCCC2)ss1	20.2 µM (inactive)	27.7 µM (inactive)	18.9 µM (inactive)	26.7 µM (inactive)	22.3 µM (inactive)	–	28.8 µM (inactive)	26.7 µM (inactive)	12.4 µM (inactive)	24.4 µM (inactive)	24.8 µM (inactive)	43.9 µM (inactive)	24.2 µM (inactive)	20 µM (inactive)	27 µM (inactive)	–	–	–	–	–
CCCCCCCC(=O)OCC1OC(n2cc(F)c(=O)[nH]c2=O)C(N)C(O)C1O (configuration not stated)	> 100 µM (inactive)	> 100 µM (inactive)	> 100 µM (inactive)	> 100 µM (inactive)	> 100 µM (inactive)	> 100 µM (inactive)	> 100 µM (inactive)	> 100 µM (inactive)	> 100 µM (inactive)	> 100 µM (inactive)	> 100 µM (inactive)	> 100 µM (inactive)	> 100 µM (inactive)	> 100 µM (inactive)	> 100 µM (inactive)	–	–	–	–	–
COS(=O)CCOC(=O)c1ccccc1SSc1ccccc1C(=O)OCCS(=O)OC (configuration not stated)	20 µM (inactive)	27.2 µM (inactive)	25.3 µM (inactive)	34.5 µM (inactive)	> 100 µM (inactive)	4.78 µM (inactive)	14.1 µM (inactive)	> 100 µM (inactive)	3.44 µM (inactive)	6.31 µM (inactive)	31 µM (inactive)	–	> 100 µM (inactive)	37.7 µM (inactive)	43.7 µM (inactive)	–	–	–	–	–
CC1=C(C(=O)CC(=O)C(=O)Nc2cccc(Cl)c2C)Sc2ccccc2N1	> 100 µM (inactive)	> 100 µM (inactive)	> 100 µM (inactive)	> 100 µM (inactive)	> 100 µM (inactive)	> 100 µM (inactive)	> 100 µM (inactive)	> 100 µM (inactive)	> 100 µM (inactive)	–	> 100 µM (inactive)	> 100 µM (inactive)	> 100 µM (inactive)	> 100 µM (inactive)	> 100 µM (inactive)	–	–	–	–	–
Cc1ccccc1C1=[N+]([O-])c2ccc(Cl)cc2C1=O	16.3 µM (inactive)	–	17.7 µM (inactive)	7.41 µM (inactive)	15.4 µM (inactive)	11.5 µM (inactive)	5.01 µM (inactive)	20 µM (inactive)	3.6 µM (inactive)	19.8 µM (inactive)	25.4 µM (inactive)	14.4 µM (inactive)	12.5 µM (inactive)	14.1 µM (inactive)	12.9 µM (inactive)	–	–	–	–	–
CCC1(C)C=Cc2c(cc(OC)c3c(=O)c4ccccc4n(C)c23)O1 (configuration not stated)	> 10 µM (inactive)	1.22 µM (inactive)	4.47 µM (inactive)	–	8 µM (inactive)	> 10 µM (inactive)	7.69 µM (inactive)	> 10 µM (inactive)	> 10 µM (inactive)	7.13 µM (inactive)	> 10 µM (inactive)	> 10 µM (inactive)	> 10 µM (inactive)	> 10 µM (inactive)	> 10 µM (inactive)	> 10 µM (inactive)	4.99 µM (inactive)	> 10 µM (inactive)	0.785 µM (active)	5.6 µM (inactive)
COc1cccc2c1C(=O)c1c(O)c3c(c(O)c1C2=O)CC(O)(C(C)=O)CC3OC1CC([N+](C)(C)C)C(O)C(C)O1 (configuration not stated)	> 100 µM (inactive)	> 100 µM (inactive)	47.2 µM (inactive)	91.2 µM (inactive)	36.4 µM (inactive)	31.3 µM (inactive)	94.2 µM (inactive)	> 100 µM (inactive)	12.4 µM (inactive)	52.2 µM (inactive)	56.1 µM (inactive)	80.7 µM (inactive)	> 100 µM (inactive)	> 100 µM (inactive)	> 100 µM (inactive)	–	–	–	–	–
Cc1c2cc[n+](C)cc2c(C)c2c1[nH]c1ccc(OC(C)(C)C)cc12	> 100 µM (inactive)	> 100 µM (inactive)	> 100 µM (inactive)	> 100 µM (inactive)	> 100 µM (inactive)	> 100 µM (inactive)	> 100 µM (inactive)	> 100 µM (inactive)	> 100 µM (inactive)	> 100 µM (inactive)	> 100 µM (inactive)	> 100 µM (inactive)	–	> 100 µM (inactive)	> 100 µM (inactive)	–	–	–	–	–
